Results published in publication PMC8550792, “Evolution of kinase polypharmacology across HSP90 drug discovery” (Cell Chemical Biology, 2021).
Read-outs that look alike come from different tables or passages of the source.

Key:
Test in all cases: biochemical
Format in all cases: biochemical
382 unique human kinases [1] = molecular target: T1, 382 unique human kinases (Homo sapiens, UniProt Q02763, Y897C); conditions: kinase TIE2 (Y897C), compound 10 uM; for remaining activity at 10 µM: read-out: % Enzyme Activity (relative to DMSO controls)
T1 construct: purchased Reaction Biology (HotSpot contract assay)

382 unique human kinases [2] = molecular target: T2, 382 unique human kinases (Homo sapiens, UniProt O00238); conditions: kinase ALK6/BMPR1B, compound 10 uM; for remaining activity at 10 µM: read-out: % Enzyme Activity (relative to DMSO controls)
T2 construct: purchased Reaction Biology (HotSpot contract assay)

382 unique human kinases [3] = molecular target: T3, 382 unique human kinases (Homo sapiens, UniProt Q02750); conditions: kinase MEK1, compound 10 uM; for remaining activity at 10 µM: read-out: % Enzyme Activity (relative to DMSO controls)
T3 construct: purchased Reaction Biology (HotSpot contract assay)

382 unique human kinases [4] = molecular target: T4, 382 unique human kinases (Homo sapiens, UniProt P21802); conditions: FGFR2, 10 uM; for remaining activity at 10 µM: read-out: % Enzyme Activity (relative to DMSO controls)
T4 construct: purchased Reaction Biology (HotSpot contract assay)

382 unique human kinases [5] = molecular target: T5, 382 unique human kinases (Homo sapiens, UniProt Q9HBH9); conditions: kinase MNK2, compound 10 uM; for remaining activity at 10 µM: read-out: % Enzyme Activity (relative to DMSO controls)
T5 construct: purchased Reaction Biology (HotSpot contract assay)

382 unique human kinases [6] = molecular target: T6, 382 unique human kinases (Homo sapiens, UniProt P36897); conditions: kinase ALK5/TGFBR1, compound 10 uM; for remaining activity at 10 µM: read-out: % Enzyme Activity (relative to DMSO controls)
T6 construct: purchased Reaction Biology (HotSpot contract assay)
T6 sequence (P36897 34-503): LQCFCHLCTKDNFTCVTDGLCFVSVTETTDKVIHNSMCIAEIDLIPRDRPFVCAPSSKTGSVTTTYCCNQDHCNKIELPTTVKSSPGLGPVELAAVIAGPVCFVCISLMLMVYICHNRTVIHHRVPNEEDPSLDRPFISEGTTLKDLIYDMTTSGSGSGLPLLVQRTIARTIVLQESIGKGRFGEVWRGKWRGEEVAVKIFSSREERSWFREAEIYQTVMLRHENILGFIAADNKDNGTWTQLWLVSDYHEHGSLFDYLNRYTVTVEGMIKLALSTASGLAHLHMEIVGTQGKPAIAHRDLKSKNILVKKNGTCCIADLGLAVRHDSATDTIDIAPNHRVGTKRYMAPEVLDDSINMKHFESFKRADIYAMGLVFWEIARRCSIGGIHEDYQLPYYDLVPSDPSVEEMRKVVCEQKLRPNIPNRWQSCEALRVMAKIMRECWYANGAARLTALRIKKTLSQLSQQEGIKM

382 unique human kinases [7] = molecular target: T7, 382 unique human kinases (Homo sapiens, UniProt Q9UBS0); conditions: kinase p70S6Kb/RPS6KB2, compound 10 uM; for remaining activity at 10 µM: read-out: % Enzyme Activity (relative to DMSO controls)
T7 construct: purchased Reaction Biology (HotSpot contract assay)

382 unique human kinases [8] = molecular target: T8, 382 unique human kinases (Homo sapiens, UniProt O43318); conditions: kinase TAK1, compound 10 uM; for remaining activity at 10 µM: read-out: % Enzyme Activity (relative to DMSO controls)
T8 construct: purchased Reaction Biology (HotSpot contract assay)
T8 sequence (O43318 1-606): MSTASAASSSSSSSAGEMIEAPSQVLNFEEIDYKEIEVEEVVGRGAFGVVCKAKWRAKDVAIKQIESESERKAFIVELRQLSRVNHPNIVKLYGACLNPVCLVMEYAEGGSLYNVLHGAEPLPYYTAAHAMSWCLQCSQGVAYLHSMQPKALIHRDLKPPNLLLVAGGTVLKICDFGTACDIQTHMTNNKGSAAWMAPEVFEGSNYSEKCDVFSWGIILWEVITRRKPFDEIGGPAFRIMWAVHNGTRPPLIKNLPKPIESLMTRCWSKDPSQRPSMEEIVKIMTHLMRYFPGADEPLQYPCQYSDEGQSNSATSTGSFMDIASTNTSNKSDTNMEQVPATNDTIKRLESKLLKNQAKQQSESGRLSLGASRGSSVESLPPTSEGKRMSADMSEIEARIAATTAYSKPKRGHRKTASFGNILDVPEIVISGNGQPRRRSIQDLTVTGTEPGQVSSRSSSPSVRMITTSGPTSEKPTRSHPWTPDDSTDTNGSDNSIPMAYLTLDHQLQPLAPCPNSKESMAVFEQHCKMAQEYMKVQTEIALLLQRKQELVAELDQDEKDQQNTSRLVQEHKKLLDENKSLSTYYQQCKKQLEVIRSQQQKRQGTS

382 unique human kinases [9] = molecular target: T9, 382 unique human kinases (Homo sapiens, UniProt Q9BQI3); conditions: EIF2AK1, compound at 10 uM, duplicate values; for remaining activity at 10 µM: read-out: % Enzyme Activity (relative to DMSO controls)
T9 construct: purchased Reaction Biology (HotSpot contract assay)

382 unique human kinases [10] = molecular target: T10, 382 unique human kinases (Homo sapiens, UniProt P50613); conditions: kinase CDK7/cyclin H, compound 10 uM; for remaining activity at 10 µM: read-out: % Enzyme Activity (relative to DMSO controls)
T10 construct: purchased Reaction Biology (HotSpot contract assay)

382 unique human kinases [11] = molecular target: T11, 382 unique human kinases (Homo sapiens, UniProt P07949, Y791F); conditions: [ATP] 15 µM, compound 10 uM, read-out: % Enzyme Activity (relative to DMSO controls)
T11 construct: purchased Reaction Biology (HotSpot contract assay)

382 unique human kinases [12] = molecular target: T12, 382 unique human kinases (Homo sapiens, UniProt P37023); conditions: ALK1/ACVRL1, 10 uM; for remaining activity at 10 µM: read-out: % Enzyme Activity (relative to DMSO controls)
T12 construct: purchased Reaction Biology (HotSpot contract assay)

382 unique human kinases [13] = molecular target: T13, 382 unique human kinases (Homo sapiens, UniProt P11362); conditions: FGFR1, [ATP] 5 µM, compound 10 uM; for remaining activity at 10 µM: read-out: % Enzyme Activity (relative to DMSO controls)
T13 construct: purchased Reaction Biology (HotSpot contract assay)

382 unique human kinases [14] = molecular target: T14, 382 unique human kinases (Homo sapiens, UniProt O94921); conditions: CDK14/cyclin Y (PFTK1), 10 uM; for remaining activity at 10 µM: read-out: % Enzyme Activity (relative to DMSO controls)
T14 construct: purchased Reaction Biology (HotSpot contract assay)

382 unique human kinases [15] = molecular target: T15, 382 unique human kinases (Homo sapiens, UniProt P17252); conditions: PKCa, 10 uM; for remaining activity at 10 µM: read-out: % Enzyme Activity (relative to DMSO controls)
T15 construct: purchased Reaction Biology (HotSpot contract assay)

382 unique human kinases [16] = molecular target: T16, 382 unique human kinases (Homo sapiens, UniProt Q96KB5); conditions: PBK/TOPK, 10 uM; for remaining activity at 10 µM: read-out: % Enzyme Activity (relative to DMSO controls)
T16 construct: purchased Reaction Biology (HotSpot contract assay)
T16 sequence (Q96KB5 1-322): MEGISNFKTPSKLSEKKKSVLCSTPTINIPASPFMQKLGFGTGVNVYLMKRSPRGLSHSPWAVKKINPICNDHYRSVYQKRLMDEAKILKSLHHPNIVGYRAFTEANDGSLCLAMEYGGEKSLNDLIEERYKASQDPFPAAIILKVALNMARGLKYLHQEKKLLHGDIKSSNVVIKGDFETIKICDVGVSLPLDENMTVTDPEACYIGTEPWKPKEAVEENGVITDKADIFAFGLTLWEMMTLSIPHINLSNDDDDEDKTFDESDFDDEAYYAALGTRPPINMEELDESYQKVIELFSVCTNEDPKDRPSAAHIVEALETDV

T11 sequence (P07949 29-1114 Y791F): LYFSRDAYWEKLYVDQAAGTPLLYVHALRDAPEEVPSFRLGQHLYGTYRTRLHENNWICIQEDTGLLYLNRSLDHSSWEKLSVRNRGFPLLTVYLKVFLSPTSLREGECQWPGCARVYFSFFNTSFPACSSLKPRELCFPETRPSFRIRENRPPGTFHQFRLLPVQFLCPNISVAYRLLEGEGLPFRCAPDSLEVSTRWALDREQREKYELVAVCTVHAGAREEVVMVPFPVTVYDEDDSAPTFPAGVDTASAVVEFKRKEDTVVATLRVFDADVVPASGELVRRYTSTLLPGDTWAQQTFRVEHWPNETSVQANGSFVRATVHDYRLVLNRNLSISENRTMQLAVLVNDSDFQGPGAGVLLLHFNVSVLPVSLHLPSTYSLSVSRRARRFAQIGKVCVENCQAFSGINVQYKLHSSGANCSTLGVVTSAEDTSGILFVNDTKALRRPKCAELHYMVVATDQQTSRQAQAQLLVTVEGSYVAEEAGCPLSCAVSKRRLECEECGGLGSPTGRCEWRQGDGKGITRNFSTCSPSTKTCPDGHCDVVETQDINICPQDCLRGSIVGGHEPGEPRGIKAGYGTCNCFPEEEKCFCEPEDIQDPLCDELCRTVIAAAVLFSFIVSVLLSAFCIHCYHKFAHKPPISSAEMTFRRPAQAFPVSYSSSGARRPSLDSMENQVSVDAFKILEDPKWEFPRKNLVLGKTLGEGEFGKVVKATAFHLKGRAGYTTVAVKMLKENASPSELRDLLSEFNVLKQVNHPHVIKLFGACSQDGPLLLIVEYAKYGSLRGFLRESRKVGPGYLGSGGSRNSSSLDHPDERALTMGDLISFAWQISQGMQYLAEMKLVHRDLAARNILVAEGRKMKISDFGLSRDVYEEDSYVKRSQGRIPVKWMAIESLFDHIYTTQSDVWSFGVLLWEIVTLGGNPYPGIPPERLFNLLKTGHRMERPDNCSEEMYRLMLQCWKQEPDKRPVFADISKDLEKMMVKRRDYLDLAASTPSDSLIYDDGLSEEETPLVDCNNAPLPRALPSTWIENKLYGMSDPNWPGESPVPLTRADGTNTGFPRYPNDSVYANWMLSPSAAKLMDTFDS
T14 sequence (O94921 whole entry): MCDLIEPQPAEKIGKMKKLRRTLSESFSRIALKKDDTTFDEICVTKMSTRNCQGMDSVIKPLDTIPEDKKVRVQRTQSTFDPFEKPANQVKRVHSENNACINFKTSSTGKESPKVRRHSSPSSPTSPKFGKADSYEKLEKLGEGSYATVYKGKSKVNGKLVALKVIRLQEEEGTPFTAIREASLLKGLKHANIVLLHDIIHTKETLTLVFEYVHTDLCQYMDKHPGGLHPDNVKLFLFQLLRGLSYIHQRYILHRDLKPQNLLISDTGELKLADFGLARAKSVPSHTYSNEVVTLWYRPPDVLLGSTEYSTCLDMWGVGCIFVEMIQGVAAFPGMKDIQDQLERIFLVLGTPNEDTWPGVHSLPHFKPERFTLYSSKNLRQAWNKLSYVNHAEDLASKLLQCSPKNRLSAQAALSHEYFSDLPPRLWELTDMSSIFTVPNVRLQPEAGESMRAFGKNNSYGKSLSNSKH
T13 sequence (P11362 22-822): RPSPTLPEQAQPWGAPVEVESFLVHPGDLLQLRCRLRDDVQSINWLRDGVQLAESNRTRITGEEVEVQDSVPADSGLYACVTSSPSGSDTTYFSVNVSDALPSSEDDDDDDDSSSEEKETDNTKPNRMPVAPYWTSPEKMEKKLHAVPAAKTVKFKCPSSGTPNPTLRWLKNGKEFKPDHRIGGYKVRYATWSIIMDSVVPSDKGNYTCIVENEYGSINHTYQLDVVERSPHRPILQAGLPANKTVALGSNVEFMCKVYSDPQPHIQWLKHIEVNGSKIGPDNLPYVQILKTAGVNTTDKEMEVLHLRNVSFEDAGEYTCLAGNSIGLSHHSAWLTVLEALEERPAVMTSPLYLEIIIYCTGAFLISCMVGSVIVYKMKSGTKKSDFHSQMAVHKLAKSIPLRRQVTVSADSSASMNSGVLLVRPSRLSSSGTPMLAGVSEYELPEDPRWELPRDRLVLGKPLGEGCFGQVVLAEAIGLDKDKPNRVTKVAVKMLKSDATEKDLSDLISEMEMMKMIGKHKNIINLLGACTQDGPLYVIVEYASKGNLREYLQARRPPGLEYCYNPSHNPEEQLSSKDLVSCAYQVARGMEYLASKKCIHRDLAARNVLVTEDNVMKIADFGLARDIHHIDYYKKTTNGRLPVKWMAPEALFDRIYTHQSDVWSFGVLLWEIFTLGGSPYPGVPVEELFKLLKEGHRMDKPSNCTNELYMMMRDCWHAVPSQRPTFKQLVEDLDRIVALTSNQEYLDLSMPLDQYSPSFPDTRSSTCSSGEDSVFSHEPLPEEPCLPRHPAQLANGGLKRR
T3 sequence (Q02750 whole entry): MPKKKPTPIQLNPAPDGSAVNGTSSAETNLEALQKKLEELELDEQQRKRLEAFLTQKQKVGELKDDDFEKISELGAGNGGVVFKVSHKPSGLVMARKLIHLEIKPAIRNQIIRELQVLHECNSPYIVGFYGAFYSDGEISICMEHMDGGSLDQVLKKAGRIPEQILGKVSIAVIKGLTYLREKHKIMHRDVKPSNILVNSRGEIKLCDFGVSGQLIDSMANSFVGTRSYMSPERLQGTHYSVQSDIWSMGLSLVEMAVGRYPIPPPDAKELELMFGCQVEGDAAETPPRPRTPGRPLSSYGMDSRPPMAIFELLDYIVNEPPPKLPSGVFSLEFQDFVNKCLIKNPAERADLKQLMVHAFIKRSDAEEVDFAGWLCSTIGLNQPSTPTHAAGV
T10 sequence (P50613 whole entry): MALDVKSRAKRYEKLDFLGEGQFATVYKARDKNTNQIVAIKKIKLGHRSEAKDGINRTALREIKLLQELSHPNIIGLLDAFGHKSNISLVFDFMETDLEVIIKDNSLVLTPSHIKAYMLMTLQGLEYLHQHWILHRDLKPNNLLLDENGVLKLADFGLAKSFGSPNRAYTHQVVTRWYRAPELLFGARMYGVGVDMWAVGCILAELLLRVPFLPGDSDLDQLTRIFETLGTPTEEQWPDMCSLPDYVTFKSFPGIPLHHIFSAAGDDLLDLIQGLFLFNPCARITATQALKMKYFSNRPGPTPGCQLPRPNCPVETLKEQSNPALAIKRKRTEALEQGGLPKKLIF
T4 sequence (P21802 22-821): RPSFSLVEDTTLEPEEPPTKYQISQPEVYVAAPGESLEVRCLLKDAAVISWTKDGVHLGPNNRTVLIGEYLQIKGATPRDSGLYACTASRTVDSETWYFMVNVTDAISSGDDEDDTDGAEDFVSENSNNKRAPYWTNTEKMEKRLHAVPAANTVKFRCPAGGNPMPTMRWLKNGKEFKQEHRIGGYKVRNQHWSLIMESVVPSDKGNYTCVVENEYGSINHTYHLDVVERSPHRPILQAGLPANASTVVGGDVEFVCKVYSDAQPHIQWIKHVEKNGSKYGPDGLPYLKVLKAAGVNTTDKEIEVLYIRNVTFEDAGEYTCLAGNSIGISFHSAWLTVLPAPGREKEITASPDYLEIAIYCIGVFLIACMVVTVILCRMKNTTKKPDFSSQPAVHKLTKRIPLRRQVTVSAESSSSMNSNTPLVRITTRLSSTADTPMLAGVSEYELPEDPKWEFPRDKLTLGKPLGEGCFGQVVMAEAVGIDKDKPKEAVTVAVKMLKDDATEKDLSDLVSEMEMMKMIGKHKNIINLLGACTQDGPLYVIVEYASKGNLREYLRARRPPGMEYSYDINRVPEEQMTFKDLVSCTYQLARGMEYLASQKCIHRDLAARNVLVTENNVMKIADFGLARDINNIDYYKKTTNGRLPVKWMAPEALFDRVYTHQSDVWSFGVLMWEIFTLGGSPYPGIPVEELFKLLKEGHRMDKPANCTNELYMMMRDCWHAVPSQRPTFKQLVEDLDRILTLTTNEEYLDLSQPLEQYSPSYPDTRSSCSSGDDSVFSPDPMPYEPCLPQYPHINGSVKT
T2 sequence (O00238 14-502): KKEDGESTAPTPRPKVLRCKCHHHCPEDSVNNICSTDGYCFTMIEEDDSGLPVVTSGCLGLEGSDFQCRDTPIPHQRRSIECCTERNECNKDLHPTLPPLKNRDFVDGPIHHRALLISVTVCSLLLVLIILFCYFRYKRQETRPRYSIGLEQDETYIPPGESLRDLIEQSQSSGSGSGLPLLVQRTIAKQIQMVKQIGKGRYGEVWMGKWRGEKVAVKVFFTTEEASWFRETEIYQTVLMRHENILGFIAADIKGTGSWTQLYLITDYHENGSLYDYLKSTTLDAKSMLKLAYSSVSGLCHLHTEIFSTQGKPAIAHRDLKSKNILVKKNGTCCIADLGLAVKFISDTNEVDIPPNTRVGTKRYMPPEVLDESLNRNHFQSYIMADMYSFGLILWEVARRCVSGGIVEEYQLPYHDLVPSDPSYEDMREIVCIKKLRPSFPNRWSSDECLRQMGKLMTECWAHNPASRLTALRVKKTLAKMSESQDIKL
T12 sequence (P37023 22-503): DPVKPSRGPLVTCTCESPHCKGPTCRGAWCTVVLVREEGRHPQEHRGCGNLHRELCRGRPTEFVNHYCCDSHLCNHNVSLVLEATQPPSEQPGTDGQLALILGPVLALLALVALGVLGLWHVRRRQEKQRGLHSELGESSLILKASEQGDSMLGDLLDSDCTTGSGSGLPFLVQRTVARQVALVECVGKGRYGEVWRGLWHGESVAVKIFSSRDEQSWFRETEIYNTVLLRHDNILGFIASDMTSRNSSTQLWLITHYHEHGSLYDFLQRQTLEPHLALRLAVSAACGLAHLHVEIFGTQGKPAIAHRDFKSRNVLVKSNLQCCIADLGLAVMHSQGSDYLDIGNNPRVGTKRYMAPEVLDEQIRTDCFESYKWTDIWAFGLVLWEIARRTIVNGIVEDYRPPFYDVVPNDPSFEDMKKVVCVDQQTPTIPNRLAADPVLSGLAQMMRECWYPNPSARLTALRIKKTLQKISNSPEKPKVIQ

| SMILES | remaining activity at 10 µM (382 unique human kinases [1]) [%] | remaining activity at 10 µM (382 unique human kinases [2]) [%] | remaining activity at 10 µM (382 unique human kinases [3]) [%] | remaining activity at 10 µM (382 unique human kinases [4]) [%] | remaining activity at 10 µM (382 unique human kinases [5]) [%] | remaining activity at 10 µM (382 unique human kinases [6]) [%] | remaining activity at 10 µM (382 unique human kinases [7]) [%] | remaining activity at 10 µM (382 unique human kinases [8]) [%] | remaining activity at 10 µM (382 unique human kinases [9]) [%] | remaining activity at 10 µM (382 unique human kinases [10]) [%] | remaining activity at 10 µM (382 unique human kinases [11]; RET (Y791F)) [%] | remaining activity at 10 µM (382 unique human kinases [12]) [%] | remaining activity at 10 µM (382 unique human kinases [13]) [%] | remaining activity at 10 µM (382 unique human kinases [14]) [%] | remaining activity at 10 µM (382 unique human kinases [15]) [%] | remaining activity at 10 µM (382 unique human kinases [16]) [%] | other results |
| --- | --- | --- | --- | --- | --- | --- | --- | --- | --- | --- | --- | --- | --- | --- | --- | --- | --- |
| CC(C)c1cc(-c2n[nH]c(=O)n2-c2ccc3c(ccn3C)c2)c(O)cc1O [Ganetespib (STA9090)] | 88 | 94.5 | 90.3 | 68.3 | 92 | 90.1 | 96.6 | 85.8 | 110 | 95.8 |  |  |  |  |  |  |  |
| CCNC(=O)c1noc(-c2cc(C(C)C)c(O)cc2O)c1-c1ccc(CN2CCOCC2)cc1 [Luminespib] |  |  |  |  |  |  |  |  |  |  | 100 | 105 | 102 | 103 | 94 | 98.3 | remaining activity at 10 µM (382 unique human kinases [11]; […]): 99.9%; % Enzyme Activity (relative to DMSO controls) (382 unique human kinases [12]): 102.87%; % Enzyme Activity (relative to DMSO controls) (382 unique human kinases [13]): 97.95%; % Enzyme Activity (relative to DMSO controls) (382 unique human kinases [14]): 102.69%; % Enzyme Activity (relative to DMSO controls) (382 unique human kinases [15]): 92.02%; % Enzyme Activity (relative to DMSO controls) (382 unique human kinases [16]): 96.61% |
| CCNC(=O)c1noc(-c2cc(C(C)C)c(O)cc2O)c1-c1ccc(CN2CCOCC2)cc1 [Luminespib (AUY-922)] | 100 | 94.8 | 95.8 | 99.8 | 105 | 94.7 | 113 | 96.7 | 127 | 85.3 |  |  |  |  |  |  | % Enzyme Activity (relative to DMSO controls) (382 unique human kinases [1]): 99.30%; % Enzyme Activity (relative to DMSO controls) (382 unique human kinases [2]): 93.58%; % Enzyme Activity (relative to DMSO controls) (382 unique human kinases [3]): 95.75%; % Enzyme Activity (relative to DMSO controls) (382 unique human kinases [4]): 98.90%; % Enzyme Activity (relative to DMSO controls) (382 unique human kinases [5]): 103.84%; % Enzyme Activity (relative to DMSO controls) (382 unique human kinases [6]): 93.53%; % Enzyme Activity (relative to DMSO controls) (382 unique human kinases [7]): 108.19%; % Enzyme Activity (relative to DMSO controls) (382 unique human kinases [8]): 96.28%; % Enzyme Activity (relative to DMSO controls) (382 unique human kinases [9]): 122.69%; % Enzyme Activity (relative to DMSO controls) (382 unique human kinases [10]): 84.47% |
| CC(C)c1cc(-c2n[nH]c(=O)n2-c2ccc3c(ccn3C)c2)c(O)cc1O [Ganetespib] |  |  |  |  |  |  |  |  |  |  | 60.9 | 95.6 | 58.5 | 93.1 | 94.5 | 93.8 |  |
